Like-named read-outs stand apart in the source and are kept apart here.
Key:
Type in all cases: cell-based
GIPR = target: T1, GIPR (Homo sapiens, UniProt P48546); test: GIP activity test (cAMP, chemiluminescence)
T1 construct: expressed in transfected cells; host or cells: CHO-K1
T1 sequence (P48546 22-466): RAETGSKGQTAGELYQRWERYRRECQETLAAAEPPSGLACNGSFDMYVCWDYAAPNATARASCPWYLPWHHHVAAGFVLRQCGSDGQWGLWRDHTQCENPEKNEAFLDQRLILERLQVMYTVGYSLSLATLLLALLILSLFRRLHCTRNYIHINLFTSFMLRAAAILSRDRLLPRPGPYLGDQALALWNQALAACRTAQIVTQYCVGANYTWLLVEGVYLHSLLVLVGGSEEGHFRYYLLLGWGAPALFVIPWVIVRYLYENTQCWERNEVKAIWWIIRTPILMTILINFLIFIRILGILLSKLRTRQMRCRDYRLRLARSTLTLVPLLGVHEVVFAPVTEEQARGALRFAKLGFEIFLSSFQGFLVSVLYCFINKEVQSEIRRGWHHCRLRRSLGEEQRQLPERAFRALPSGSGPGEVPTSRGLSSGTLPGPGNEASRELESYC
Method: (§1) Upon stimulation by a specific agonist, GIPR activates the intracellular adenylate cyclase signaling pathway, resulting in an increase in cAMP levels and ultimately leading to insulin production and secretion. A cell line stably transfected with GIPR was stimulated with test compounds, thereby rapidly increasing intracellular cAMP levels. The relative luminescence units (RLU) of cells stimulated at various concentrations were measured by a chemiluminescence method, and the EC50 value of the agonist was calculated accordingly. This activity assay method is currently a commonly used method for evaluating GIP receptor agonist activity both domestically and internationally. A CHO-K1 cell line stably expressing GIPR was used. The stable cells were stimulated with agonists at different concentrations, and the relative luminescence units after stimulation at each concentration were measured to calculate the EC50 value of the agonist.

GLP-1R = target: T2, GLP-1R (Homo sapiens, UniProt P43220); test: GLP-1 activity test (cAMP, chemiluminescence)
T2 construct: expressed in transfected cells; host or cells: CHO-K1
Method: as §1, with “GLP-1R” for “GIPR”, “test” for “assay”, “GLP-1” for “GIP”

GCG-R = target: T3, GCG-R (Homo sapiens, UniProt P47871); test: GCG activity test (cAMP, chemiluminescence)
T3 construct: expressed in transfected cells; host or cells: CHO-K1
Method: as §1, with “GCG-R” for “GIPR”, “GCG” for “GIP”, “internationally.” for “internationally. A CHO-K1 cell line stably expressing GIPR was used. The stable cells were stimulated with agonists at different concentrations, and the relative luminescence units after stimulation at each concentration were measured to calculate the EC50 value of the agonist.”
A CHO-K1 cell line stably expressing GCG-R was used. The stable cells were stimulated with agonists at different concentrations, and the relative luminescence units after stimulation at each concentration were measured to calculate the EC50 value of the agonist.

T2 sequence (P43220 24-463, species assumed): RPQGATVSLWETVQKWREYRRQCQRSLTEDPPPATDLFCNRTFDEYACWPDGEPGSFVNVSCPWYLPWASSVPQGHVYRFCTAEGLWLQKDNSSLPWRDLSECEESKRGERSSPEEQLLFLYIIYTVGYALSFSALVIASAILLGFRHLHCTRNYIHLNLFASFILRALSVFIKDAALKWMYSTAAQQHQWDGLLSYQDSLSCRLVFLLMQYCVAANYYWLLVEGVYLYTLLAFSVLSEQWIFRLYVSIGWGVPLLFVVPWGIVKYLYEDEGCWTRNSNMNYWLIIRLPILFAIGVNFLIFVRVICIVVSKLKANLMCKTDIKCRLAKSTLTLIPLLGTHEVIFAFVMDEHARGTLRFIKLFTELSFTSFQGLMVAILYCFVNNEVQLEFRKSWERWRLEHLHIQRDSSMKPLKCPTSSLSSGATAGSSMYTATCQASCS
T3 sequence (P47871 26-477, species assumed): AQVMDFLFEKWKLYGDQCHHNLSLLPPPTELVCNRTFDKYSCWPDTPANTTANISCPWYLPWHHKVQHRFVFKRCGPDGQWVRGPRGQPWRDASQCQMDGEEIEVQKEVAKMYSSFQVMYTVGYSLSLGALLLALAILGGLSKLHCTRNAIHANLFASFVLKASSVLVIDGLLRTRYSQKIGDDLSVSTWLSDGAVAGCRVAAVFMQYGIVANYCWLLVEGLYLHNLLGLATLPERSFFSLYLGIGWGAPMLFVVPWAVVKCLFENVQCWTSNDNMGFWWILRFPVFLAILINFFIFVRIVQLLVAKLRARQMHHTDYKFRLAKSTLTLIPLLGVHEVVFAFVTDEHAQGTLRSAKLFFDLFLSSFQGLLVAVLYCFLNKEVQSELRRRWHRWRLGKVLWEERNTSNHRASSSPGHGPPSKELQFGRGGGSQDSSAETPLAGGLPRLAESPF

| SMILES | EC50 (GIPR) | EC50 (GLP-1R) | EC50 (GCG-R) | EC50 (GIPR; CHO-K1 cell line stably expressing GIPR, cAMP, relative luminescence units, read-out: GIP [EC50(pmol)]) | EC50 (GLP-1R; CHO-K1 cell line stably expressing GLP-1R, cAMP, relative luminescence units, read-out: GLP-1 [EC50(pmol)]) | EC50 (GCG-R; CHO-K1 cell line stably expressing GCG-R, cAMP, relative luminescence units, read-out: GCG [EC50(pmol)]) |
| --- | --- | --- | --- | --- | --- | --- |
| CC[C@H](C)[C@H](NC(=O)[C@H](Cc1ccccc1)NC(=O)[C@H](C)NC(=O)C(C)(C)NC(=O)[C@H](CCC(N)=O)NC(=O)[C@H](C)NC(=O)[C@H](CCCCNC(=O)COCCOCCNC(=O)COCCOCCNC(=O)CC[C@H](NC(=O)CCCCCCCCCCCCCCCCCCC(=O)O)C(=O)O)NC(=O)[C@H](CCCCN)NC(=O)[C@H](CC(=O)O)NC(=O)[C@H](CC(C)C)NC(=O)C(C)(CC(C)C)NC(=O)[C@@H](NC(=O)[C@H](CO)NC(=O)[C@H](Cc1ccc(O)cc1)NC(=O)[C@H](CC(=O)O)NC(=O)[C@H](CO)NC(=O)[C@@H](NC(=O)C(C)(Cc1ccccc1)NC(=O)[C@@H](NC(=O)CNC(=O)[C@H](CCC(N)=O)NC(=O)C(C)(C)NC(=O)[C@@H](N)Cc1ccc(O)cc1)[C@@H](C)O)[C@@H](C)O)[C@@H](C)CC)C(=O)N[C@@H](CCC(=O)O)C(=O)N[C@@H](Cc1ccc(O)cc1)C(=O)N[C@@H](CC(C)C)C(=O)N[C@@H](CC(C)C)C(=O)N[C@@H](CCC(=O)O)C(=O)NCCCCC(=O)N1CCC[C@H]1C(=O)N[C@@H](CO)C(=O)N[C@@H](CO)C(=O)NCC(=O)N[C@@H](C)C(=O)N1CCC[C@H]1C(=O)N1CCC[C@H]1C(=O)N1CCC[C@H]1C(=O)N[C@@H](CO)C(N)=O (stereo partly drawn) [Compound 9] | 0.0268 nM | 0.0519 nM | 0.307 nM | – | – | – |
| CC[C@H](C)[C@H](NC(=O)[C@H](Cc1ccccc1)NC(=O)[C@H](C)NC(=O)C(C)(C)NC(=O)[C@H](CCC(N)=O)NC(=O)[C@H](C)NC(=O)[C@H](CCCCNC(=O)COCCOCCOCCOCCOCCNC(=O)CC[C@H](NC(=O)CCCCCCCCCCCCCCCCCCC(=O)O)C(=O)O)NC(=O)[C@H](CCCCN)NC(=O)[C@H](CC(=O)O)NC(=O)[C@H](CC(C)C)NC(=O)C(C)(CC(C)C)NC(=O)[C@@H](NC(=O)[C@H](CO)NC(=O)[C@H](Cc1ccc(O)cc1)NC(=O)[C@H](CC(=O)O)NC(=O)[C@H](CO)NC(=O)[C@@H](NC(=O)C(C)(Cc1ccccc1)NC(=O)[C@@H](NC(=O)CNC(=O)[C@H](CCC(N)=O)NC(=O)C(C)(C)NC(=O)[C@@H](N)Cc1ccc(O)cc1)[C@@H](C)O)[C@@H](C)O)[C@@H](C)CC)C(=O)N[C@@H](CCC(=O)O)C(=O)N[C@@H](Cc1ccc(O)cc1)C(=O)N[C@@H](CC(C)C)C(=O)N[C@@H](CC(C)C)C(=O)N[C@@H](CCC(=O)O)C(=O)NCCCCC(=O)N1CCC[C@H]1C(=O)N[C@@H](CO)C(=O)N[C@@H](CO)C(=O)NCC(=O)N[C@@H](C)C(=O)N1CCC[C@H]1C(=O)N1CCC[C@H]1C(=O)N1CCC[C@H]1C(=O)N[C@@H](CO)C(N)=O (stereo partly drawn) [Compound 10] | 0.0256 nM | 0.0494 nM | 0.299 nM | – | – | – |
| CC[C@H](C)[C@H](NC(=O)[C@H](Cc1ccccc1)NC(=O)[C@H](C)NC(=O)C(C)(C)NC(=O)[C@H](CCC(N)=O)NC(=O)[C@H](C)NC(=O)[C@H](CCCCNC(=O)COCCOCCNC(=O)COCCOCCNC(=O)CC[C@H](NC(=O)CCCCCCCCCCCCCCCCCCC(=O)O)C(=O)O)NC(=O)[C@H](CCCCN)NC(=O)[C@H](CC(=O)O)NC(=O)[C@H](CC(C)C)NC(=O)C(C)(CC(C)C)NC(=O)[C@@H](NC(=O)[C@H](CO)NC(=O)[C@H](Cc1ccc(O)cc1)NC(=O)[C@H](CC(=O)O)NC(=O)[C@H](CO)NC(=O)[C@@H](NC(=O)C(C)(Cc1ccccc1F)NC(=O)[C@@H](NC(=O)CNC(=O)[C@H](CCC(N)=O)NC(=O)C(C)(C)NC(=O)[C@@H](N)Cc1ccc(O)cc1)[C@@H](C)O)[C@@H](C)O)[C@@H](C)CC)C(=O)N[C@@H](CCC(=O)O)C(=O)N[C@@H](Cc1ccc(O)cc1)C(=O)N[C@@H](CC(C)C)C(=O)N[C@@H](CC(C)C)C(=O)N[C@@H](CCC(=O)O)C(=O)NCCCCC(=O)N1CCC[C@H]1C(=O)N[C@@H](CO)C(=O)N[C@@H](CO)C(=O)NCC(=O)N[C@@H](C)C(=O)N1CCC[C@H]1C(=O)N1CCC[C@H]1C(=O)N1CCC[C@H]1C(=O)N[C@@H](CO)C(N)=O (stereo partly drawn) [Compound 11] | 0.0253 nM | 0.0487 nM | 0.174 nM | – | – | – |
| CC[C@H](C)[C@H](NC(=O)[C@H](Cc1ccccc1)NC(=O)[C@H](C)NC(=O)C(C)(C)NC(=O)[C@H](CCC(N)=O)NC(=O)[C@H](C)NC(=O)[C@H](CCCCNC(=O)COCCOCCOCCOCCOCCNC(=O)CC[C@H](NC(=O)CCCCCCCCCCCCCCCCCCC(=O)O)C(=O)O)NC(=O)[C@H](CCCCN)NC(=O)[C@H](CC(=O)O)NC(=O)[C@H](CC(C)C)NC(=O)C(C)(CC(C)C)NC(=O)[C@@H](NC(=O)[C@H](CO)NC(=O)[C@H](Cc1ccc(O)cc1)NC(=O)[C@H](CC(=O)O)NC(=O)[C@H](CO)NC(=O)[C@@H](NC(=O)C(C)(Cc1ccccc1F)NC(=O)[C@@H](NC(=O)CNC(=O)[C@H](CCC(N)=O)NC(=O)C(C)(C)NC(=O)[C@@H](N)Cc1ccc(O)cc1)[C@@H](C)O)[C@@H](C)O)[C@@H](C)CC)C(=O)N[C@@H](CCC(=O)O)C(=O)N[C@@H](Cc1ccc(O)cc1)C(=O)N[C@@H](CC(C)C)C(=O)N[C@@H](CC(C)C)C(=O)N[C@@H](CCC(=O)O)C(=O)NCCCCC(=O)N1CCC[C@H]1C(=O)N[C@@H](CO)C(=O)N[C@@H](CO)C(=O)NCC(=O)N[C@@H](C)C(=O)N1CCC[C@H]1C(=O)N1CCC[C@H]1C(=O)N1CCC[C@H]1C(=O)N[C@@H](CO)C(N)=O (stereo partly drawn) [Compound 12] | 0.0243 nM | 0.0469 nM | 0.165 nM | – | – | – |
| CC[C@H](C)[C@H](NC(=O)[C@H](Cc1ccccc1)NC(=O)[C@H](C)NC(=O)C(C)(C)NC(=O)[C@H](CCC(N)=O)NC(=O)[C@H](C)NC(=O)[C@H](CCCCNC(=O)COCCOCCNC(=O)CC[C@H](NC(=O)CCCCCCCCCCCCCCCCCCC(=O)O)C(=O)O)NC(=O)[C@H](CCCCN)NC(=O)[C@H](CC(=O)O)NC(=O)[C@H](CC(C)C)NC(=O)[C@](C)(CC(C)C)NC(=O)[C@@H](NC(=O)[C@H](CO)NC(=O)[C@H](Cc1ccc(O)cc1)NC(=O)[C@H](CC(=O)O)NC(=O)[C@H](CO)NC(=O)[C@@H](NC(=O)[C@H](Cc1ccccc1)NC(=O)[C@@H](NC(=O)CNC(=O)[C@H](CCC(N)=O)NC(=O)C(C)(C)NC(=O)[C@@H](N)Cc1ccc(O)cc1)[C@@H](C)O)[C@@H](C)O)[C@@H](C)CC)C(=O)N[C@@H](CCC(=O)O)C(=O)N[C@@H](Cc1ccc(O)cc1)C(=O)N[C@@H](CC(C)C)C(=O)N[C@@H](CC(C)C)C(=O)N[C@@H](CCC(=O)O)C(=O)NCC(=O)NCC(=O)N1CCC[C@H]1C(=O)N[C@@H](CO)C(=O)N[C@@H](CO)C(=O)NCC(=O)N[C@@H](C)C(=O)N1CCC[C@H]1C(=O)N1CCC[C@H]1C(=O)N1CCC[C@H]1C(=O)N[C@@H](CO)C(N)=O [retatrutide, Retatrutide, reference compound] | – | – | – | 0.0342 nM | 0.046 nM | 0.523 nM |

Reference: patent EP4806910A1, “TRI-AGONIST COMPOUND” (priority 2023, dated 2025)
